Experimental data from patent publication US20060069132A1, “Azolecarboxamide herbicides” (priority 2004, published 2006).

Experiments:
barnyardgrass = assay: Test B pre-/postemergence herbicide test; assay type: in vivo, Echinochloa crus-galli; settings: for Plant response rating (0 to 100 scale), Barnyardgrass: 0 is no effect, 100 is complete control, preemergence; for Barnyardgrass plant response rating: scale 0 (no effect) to 100 (complete control)
In short: (§1)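 Flooded paddy rice and barnyardgrass were treated at the 2-leaf stage; upland plantings received compound either on sown seed or on 1- to 4-leaf seedlings. All were kept 13–15 days in a greenhouse and scored visually, 0–100, relative to untreated plants.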

Surinam grass = assay: Test B pre-/postemergence herbicide test; assay type: in vivo, Urochloa decumbens; settings: for Plant response rating (0 to 100 scale), Surinam Grass: 0 is no effect, 100 is complete control, preemergence; for Surinam Grass plant response rating: scale 0 (no effect) to 100 (complete control)
In short: (§2)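 Pre: seeds sown, then sprayed. Post: 1–4-leaf plants (2–18 cm) sprayed at the same time. Paddy: flooded, treated at 2-leaf stage. Formulation: non-phytotoxic solvent with surfactant. Greenhouse 13–15 days; visual 0–100 score relative to controls.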

corn = assay: Test B pre-/postemergence herbicide test; assay type: in vivo, Zea mays; settings: for Plant response rating (0 to 100 scale), Corn: 0 is no effect, 100 is complete control, preemergence; for Corn plant response rating: scale 0 (no effect) to 100 (complete control)
In short: as §2

large crabgrass = assay: Test B pre-/postemergence herbicide test; assay type: in vivo, Digitaria sanguinalis; settings: for Plant response rating (0 to 100 scale), Crabgrass, Large: 0 is no effect, 100 is complete control, preemergence; for Crabgrass, Large plant response rating: scale 0 (no effect) to 100 (complete control)
In short: as §2

giant foxtail = assay: Test B pre-/postemergence herbicide test; assay type: in vivo, Setaria faberi; settings: for Plant response rating (0 to 100 scale), Foxtail, Giant: 0 is no effect, 100 is complete control, preemergence; for Foxtail, Giant plant response rating: scale 0 (no effect) to 100 (complete control)
In short: as §2

lambsquarters = assay: Test B pre-/postemergence herbicide test; assay type: in vivo, Chenopodium album; settings: for Plant response rating (0 to 100 scale), Lambsquarters: 0 is no effect, 100 is complete control, preemergence; for Lambsquarters plant response rating: scale 0 (no effect) to 100 (complete control)
In short: as §2

morningglory = assay: Test B pre-/postemergence herbicide test; assay type: in vivo, Ipomoea coccinea; settings: for Plant response rating (0 to 100 scale), Morningglory: 0 is no effect, 100 is complete control, preemergence; for Morningglory plant response rating: scale 0 (no effect) to 100 (complete control)
In short: as §1

pigweed = assay: Test B pre-/postemergence herbicide test; assay type: in vivo, Amaranthus retroflexus; settings: for Plant response rating (0 to 100 scale), Pigweed: 0 is no effect, 100 is complete control, preemergence; for Pigweed plant response rating: scale 0 (no effect) to 100 (complete control)
In short: as §2

velvetleaf = assay: Test B pre-/postemergence herbicide test; assay type: in vivo, Abutilon theophrasti; settings: for Plant response rating (0 to 100 scale), Velvetleaf: 0 is no effect, 100 is complete control, preemergence; for Velvetleaf plant response rating: scale 0 (no effect) to 100 (complete control)
In short: as §2

blackgrass = assay: Test B postemergence herbicide test; assay type: in vivo, Alopecurus myosuroides; settings: scale 0 (no effect) to 100 (complete control)
In short: (§3)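 After treating 2-leaf paddy plants or 2–18 cm postemergence plants (1 to 4 leaves) with formulated chemical, researchers kept them in a greenhouse for 13–15 days. Effects were judged visually versus controls: 0 indicates none, 100 total control.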

wheat = assay: Test B postemergence herbicide test; assay type: in vivo, Triticum aestivum; set-up: key to Wheat plant response rating: 0 = no effect, 100 = complete control
In short: as §3

wild oat = assay: Test B postemergence herbicide test; assay type: in vivo, Avena fatua; settings: scale 0 (no effect) to 100 (complete control)
In short: as §3

rice = assay: Test B flooded paddy test; assay type: in vivo, Oryza sativa; settings: 1000 g ai/ha, scale 0 to 100 (0 no effect, 100 complete control)
In short: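 Plants grow to 1- to 4-leaf stage (2–18 cm) for postemergence spraying, or to 2-leaf stage for the paddy test. Formulated compound is applied. Greenhouse holding lasts 13–15 days. Response is scored visually relative to controls, 0 no effect to 100 complete control; a dash means no result.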

[1] = system: small flower umbrella sedge; assay: Test B flooded paddy test; assay type: in vivo, Cyperus difformis; settings: 1000 g ai/ha, scale 0 to 100 (0 no effect, 100 complete control)
In short: as §3

ducksalad = assay: Test B flooded paddy test; assay type: in vivo, Heteranthera limosa; settings: 1000 g ai/ha, scale 0 to 100 (0 no effect, 100 complete control)
In short: as §3

[2] = 125 g ai/ha, visual rating, postemergence
[3] = 125 g ai/ha, visual rating, scale 0 (no effect) to 100 (complete control), postemergence
[4] = 500 g ai/ha, scale 0 to 100, 0 no effect, 100 complete control, preemergence
[5] = Postemergence, 500 g ai/ha, scale 0 (no effect) to 100 (complete control)

SMILES: CCc1nn(C(C)(C)C)nc1C(=O)Nc1cccc(C(=S)N(C)C)c1 [Compound 395]
- Plant response rating (0 to 100 scale), Barnyardgrass (barnyardgrass; 125 g ai/ha): 90
- Barnyardgrass plant response rating (barnyardgrass; [2]): 20
- Barnyardgrass plant response rating (barnyardgrass; Postemergence, 500 g ai/ha): 70
- Plant response rating (0 to 100 scale), Surinam Grass (Surinam grass; 125 g ai/ha): 90
- Surinam Grass plant response rating (Surinam grass; [2]): 20
- Surinam Grass plant response rating (Surinam grass; Postemergence, 500 g ai/ha): 60
- Plant response rating (0 to 100 scale), Corn (corn; 125 g ai/ha): 90
- Corn plant response rating (corn; [2]): 30
- Corn plant response rating (corn; Postemergence, 500 g ai/ha): 60
- Plant response rating (0 to 100 scale), Crabgrass, Large (large crabgrass; 125 g ai/ha): 100
- Crabgrass, Large plant response rating (large crabgrass; [2]): 20
- Crabgrass, Large plant response rating (large crabgrass; Postemergence, 500 g ai/ha): 50
- Plant response rating (0 to 100 scale), Foxtail, Giant (giant foxtail; 125 g ai/ha): 100
- Foxtail, Giant plant response rating (giant foxtail; [2]): 30
- Foxtail, Giant plant response rating (giant foxtail; Postemergence, 500 g ai/ha): 50
- Plant response rating (0 to 100 scale), Lambsquarters (lambsquarters; 125 g ai/ha): 100
- Lambsquarters plant response rating (lambsquarters; [2]): 80
- Lambsquarters plant response rating (lambsquarters; Postemergence, 500 g ai/ha): 100
- Plant response rating (0 to 100 scale), Morningglory (morningglory; 125 g ai/ha): 80
- Morningglory plant response rating (morningglory; [2]): 40
- Morningglory plant response rating (morningglory; Postemergence, 500 g ai/ha): 80
- Plant response rating (0 to 100 scale), Pigweed (pigweed; 125 g ai/ha): 100
- Pigweed plant response rating (pigweed; [2]): 40
- Pigweed plant response rating (pigweed; Postemergence, 500 g ai/ha): 60
- Plant response rating (0 to 100 scale), Velvetleaf (velvetleaf; 125 g ai/ha): 80
- Velvetleaf plant response rating (velvetleaf; [2]): 30
- Velvetleaf plant response rating (velvetleaf; Postemergence, 500 g ai/ha): 60
- Blackgrass plant response rating (blackgrass; [2]): 20
- Blackgrass plant response rating (blackgrass; Postemergence, 500 g ai/ha): 40
- Wheat plant response rating (wheat; [3]): 20
- Wheat plant response rating (wheat; [4]): 100
- Wheat plant response rating (wheat; [5]): 30
- Oat, Wild plant response rating (wild oat; [2]): 40
- Oat, Wild plant response rating (wild oat; Postemergence, 500 g ai/ha): 40
- Rice plant response rating (rice): 80
- Sedge, Umbrella plant response rating [1]: 90
- Ducksalad plant response rating (ducksalad): 90

SMILES: CCc1nn(C(C)(C)C)nc1C(=S)Nc1cccc(C(=S)N(C)C)c1 [Compound 396]
- Plant response rating (0 to 100 scale), Barnyardgrass (barnyardgrass; 125 g ai/ha): 90
- Barnyardgrass plant response rating (barnyardgrass; [2]): 10
- Barnyardgrass plant response rating (barnyardgrass; Postemergence, 500 g ai/ha): 20
- Plant response rating (0 to 100 scale), Surinam Grass (Surinam grass; 125 g ai/ha): 90
- Surinam Grass plant response rating (Surinam grass; [2]): 20
- Surinam Grass plant response rating (Surinam grass; Postemergence, 500 g ai/ha): 30
- Plant response rating (0 to 100 scale), Corn (corn; 125 g ai/ha): 80
- Corn plant response rating (corn; [2]): 10
- Corn plant response rating (corn; Postemergence, 500 g ai/ha): 10
- Plant response rating (0 to 100 scale), Crabgrass, Large (large crabgrass; 125 g ai/ha): 100
- Crabgrass, Large plant response rating (large crabgrass; [2]): 20
- Crabgrass, Large plant response rating (large crabgrass; Postemergence, 500 g ai/ha): 20
- Plant response rating (0 to 100 scale), Foxtail, Giant (giant foxtail; 125 g ai/ha): 100
- Foxtail, Giant plant response rating (giant foxtail; [2]): 20
- Foxtail, Giant plant response rating (giant foxtail; Postemergence, 500 g ai/ha): 30
- Plant response rating (0 to 100 scale), Lambsquarters (lambsquarters; 125 g ai/ha): 100
- Lambsquarters plant response rating (lambsquarters; [2]): 80
- Lambsquarters plant response rating (lambsquarters; Postemergence, 500 g ai/ha): 100
- Plant response rating (0 to 100 scale), Morningglory (morningglory; 125 g ai/ha): 60
- Morningglory plant response rating (morningglory; [2]): 20
- Morningglory plant response rating (morningglory; Postemergence, 500 g ai/ha): 60
- Plant response rating (0 to 100 scale), Pigweed (pigweed; 125 g ai/ha): 90
- Pigweed plant response rating (pigweed; [2]): 40
- Pigweed plant response rating (pigweed; Postemergence, 500 g ai/ha): 70
- Plant response rating (0 to 100 scale), Velvetleaf (velvetleaf; 125 g ai/ha): 80
- Velvetleaf plant response rating (velvetleaf; [2]): 20
- Velvetleaf plant response rating (velvetleaf; Postemergence, 500 g ai/ha): 50
- Blackgrass plant response rating (blackgrass; [2]): 10
- Blackgrass plant response rating (blackgrass; Postemergence, 500 g ai/ha): 30
- Wheat plant response rating (wheat; [3]): 10
- Wheat plant response rating (wheat; [4]): 100
- Wheat plant response rating (wheat; [5]): 20
- Oat, Wild plant response rating (wild oat; [2]): 0
- Oat, Wild plant response rating (wild oat; Postemergence, 500 g ai/ha): 30
- Rice plant response rating (rice): 70
- Sedge, Umbrella plant response rating [1]: 80
- Ducksalad plant response rating (ducksalad): 70
